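Values below derive from 48-hour exposures of cells grown in 96-well plates, with endpoints linearly interpolated between the two concentrations bracketing the appropriate inhibition level. Abbreviation: GI50, concentration required for 50% inhibition of growth.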 Calls of active or inactive are those of the source. Rule as the data show it: active = GI50 up to about 1.1 µM and inactive = higher.
How the values were obtained:
Assay in all cases: growth of human tumour cells (NCI), 48 h
[1] = tested on: KM12
[2] = tested on: TK-10
[3] = tested on: A498
[4] = tested on: NCI-H460
[5] = tested on: OVCAR-8
[6] = tested on: MOLT-4
[7] = tested on: HOP-62
[8] = tested on: RXF 393
[9] = tested on: HOP-18
[10] = tested on: OVCAR-5
[11] = tested on: EKVX
[12] = tested on: SF-295
[13] = tested on: CAKI-1
[14] = tested on: LXFL 529
[15] = tested on: OVCAR-3
[16] = tested on: SR
[17] = tested on: MDA-MB-231
[18] = tested on: PC-3
[19] = tested on: NCI/ADR-RES
[20] = tested on: DU-145

Measured: GI50

CN(/N=C/c1ccnc2ccccc12)c1ccc([N+](=O)[O-])cc1[N+](=O)[O-]
inactive: [1] > 100 µM | [2] > 100 µM | [3] > 100 µM | [4] > 100 µM | [5] > 100 µM | [6] > 100 µM | [7] 30.3 µM | [8] 41.8 µM | [9] > 100 µM | [10] > 100 µM | [11] > 100 µM | [12] 37.3 µM | [13] > 100 µM | [14] 42.6 µM | [15] 19.7 µM

Nc1ccc(C(=O)NN2C(=O)C(Cl)C2c2ccccc2O)cc1 (stereo not drawn)
inactive: [1] 82.6 µM | [2] > 100 µM | [4] 21.4 µM | [5] 42.3 µM | [6] 22.5 µM | [7] 65.2 µM | [10] 41.7 µM | [11] 49.3 µM | [12] 47.2 µM | [13] 47.8 µM | [14] 54.2 µM | [15] 31.7 µM

CC(C)(C)OC(=O)Cc1ccc2c(ccn2Cc2ccccc2)c1
inactive: [1] 64.3 µM | [2] 79.6 µM | [3] > 100 µM | [4] 68.2 µM | [5] 60.3 µM | [6] 18 µM | [7] > 100 µM | [8] 37.1 µM | [9] > 100 µM | [10] 42.5 µM | [11] 81.8 µM | [12] 75.2 µM | [13] > 100 µM | [14] 46.7 µM | [15] 56.2 µM

CC(=O)/C=C/c1ccc(C)cc1
inactive: [1] > 100 µM | [2] > 100 µM | [3] > 100 µM | [4] > 100 µM | [5] > 100 µM | [6] > 100 µM | [7] > 100 µM | [8] > 100 µM | [9] > 100 µM | [10] > 100 µM | [11] > 100 µM | [12] > 100 µM | [13] > 100 µM | [14] > 100 µM | [15] > 100 µM

Cn1c2c(c3ccccc31)CCN(CCCCN1CCN(c3cccc(Cl)c3)CC1)C2=O
inactive: [2] 11.5 µM | [3] 13.8 µM | [4] 13.4 µM | [5] 17.8 µM | [6] 7.62 µM | [7] 15.2 µM | [8] 7.94 µM | [9] 29 µM | [10] 4.56 µM | [11] 21.5 µM | [12] 16.1 µM | [13] 27.2 µM | [14] 11.1 µM | [15] 15.5 µM

CCOc1ccc(/N=N/c2ccc3oc(=O)c(C(=O)Nc4ccc(OC)cc4)cc3c2)cc1
inactive: [1] 30.8 µM | [2] 17.1 µM | [3] 4.22 µM | [5] 12.7 µM | [6] 4.07 µM | [7] 21.9 µM | [10] 32 µM | [11] 26.6 µM | [12] 31.2 µM | [13] 11 µM | [14] 6.82 µM | [15] 19.5 µM

COC(=O)/C(C#N)=C1\NN=NN1CCCN1CCOCC1
inactive: [1] > 100 µM | [2] > 100 µM | [3] > 100 µM | [4] > 100 µM | [5] > 100 µM | [6] > 100 µM | [8] > 100 µM | [9] > 100 µM | [11] > 100 µM | [12] > 100 µM | [13] > 100 µM | [14] > 100 µM | [15] > 100 µM

C=C(C)C1CC[C@]2(C(=O)O)CCC3(C)[C@H](CCC4[C@@]5(C)CC[C@H](OC6OC(CO)C(O)C6OC6OC(C)C(O)C(O)C6O)[C@@](C)(CO)C5CC[C@]43C)C12 (stereo partly drawn)
inactive: [1] > 100 µM | [2] > 100 µM | [4] > 100 µM | [5] > 100 µM | [6] > 100 µM | [7] > 100 µM | [8] > 100 µM | [10] > 100 µM | [16] > 100 µM | [11] > 100 µM | [12] > 100 µM | [14] > 100 µM | [15] > 100 µM

COC(=O)C1C=NNC1C(=O)OC (stereo not drawn)
inactive: [1] > 100 µM | [2] > 100 µM | [3] > 100 µM | [4] > 100 µM | [5] > 100 µM | [6] > 100 µM | [7] > 100 µM | [8] > 100 µM | [9] > 100 µM | [10] > 100 µM | [11] > 100 µM | [12] > 100 µM | [13] > 100 µM | [14] > 100 µM | [15] > 100 µM

O=C(O)CCC1CCc2cccc(OCC(=O)O)c2C1=O (stereo not drawn)
inactive: [2] > 100 µM | [3] > 100 µM | [4] > 100 µM | [5] > 100 µM | [6] > 100 µM | [7] > 100 µM | [8] > 100 µM | [9] > 100 µM | [11] > 100 µM | [12] > 100 µM | [13] > 100 µM | [14] > 100 µM | [15] > 100 µM

Cc1cc(NS(=O)(=O)c2ccc(NC(=O)c3ccc(Cl)c4c(Nc5ccc(S(=O)(=O)Nc6cc(C)on6)cc5)c5ccccc5nc34)cc2)no1
inactive: [1] 19.7 µM | [2] 31.3 µM | [3] 24.1 µM | [4] 21 µM | [5] 46 µM | [6] 29 µM | [7] 23.3 µM | [8] > 10 µM | [9] 15.8 µM | [10] 21 µM | [11] 39 µM | [12] 23.8 µM | [13] 15.9 µM | [14] 21.6 µM | [15] 16.6 µM

O=C(O)CSc1nnc(-c2ccccc2)[nH]1
inactive: [1] > 100 µM | [2] > 100 µM | [3] > 100 µM | [4] > 100 µM | [5] > 100 µM | [6] > 100 µM | [7] > 100 µM | [8] > 100 µM | [9] > 100 µM | [10] > 100 µM | [11] > 100 µM | [12] > 100 µM | [13] > 100 µM | [14] > 100 µM | [15] > 100 µM

CN(C(=O)C1CC1)C1C2CN3CCC(O2)C13 (stereo not drawn)
inactive: [1] > 100 µM | [2] > 100 µM | [3] > 100 µM | [4] > 100 µM | [6] > 100 µM | [7] > 100 µM | [8] > 100 µM | [9] > 100 µM | [10] > 100 µM | [11] > 100 µM | [12] > 100 µM | [13] > 100 µM | [14] > 100 µM | [15] > 100 µM

C1CC2=C(C1)C1=S(S2)SC2=C1CCC2
inactive: [1] > 100 µM | [2] > 100 µM | [3] 10.7 µM | [4] > 100 µM | [5] > 100 µM | [6] > 100 µM | [8] > 100 µM | [9] > 100 µM | [10] > 100 µM | [11] > 100 µM | [12] > 100 µM | [13] > 100 µM | [14] > 100 µM | [15] > 100 µM

COc1ccc2c(c1)CC1c3c(cc4c(c3-2)OCO4)CCN1C (stereo not drawn)
inactive: [1] 30.9 µM | [2] 21.1 µM | [3] 14.4 µM | [4] 24.3 µM | [5] 21.6 µM | [6] 20 µM | [7] 30.1 µM | [9] 21.4 µM | [10] 30.1 µM | [11] 33.4 µM | [12] 21.6 µM | [13] 23.9 µM | [14] 36.5 µM | [15] 32.5 µM

Ic1cccc(/C=C/CN2CCN(CCOC(c3ccccc3)c3ccccc3)CC2)c1
inactive: [1] 14.9 µM | [2] 16.1 µM | [17] 14 µM | [3] 16.7 µM | [4] 11.3 µM | [5] 16 µM | [6] 5.32 µM | [7] 17 µM | [8] 10.7 µM | [10] 16.7 µM | [18] 17.5 µM | [19] 16 µM | [16] 4.16 µM | [20] 13.2 µM | [11] 17.7 µM | [12] 17.5 µM | [13] 17.5 µM | [15] 16.7 µM

CC(=O)NC1(C)CCC(C(C)(C)NC(C)=O)CC1 (stereo not drawn)
inactive: [1] > 100 µM | [2] > 100 µM | [17] > 100 µM | [3] > 100 µM | [4] > 100 µM | [5] > 100 µM | [6] > 100 µM | [7] > 100 µM | [8] > 100 µM | [10] > 100 µM | [18] > 100 µM | [19] > 100 µM | [16] > 100 µM | [20] > 100 µM | [11] > 100 µM | [12] > 100 µM | [13] > 100 µM | [15] > 100 µM

CC1(C)OC2C(O)C(CO)OC2(C(F)F)O1 (stereo not drawn)
inactive: [1] > 100 µM | [2] > 100 µM | [17] > 100 µM | [3] > 100 µM | [4] > 100 µM | [5] > 100 µM | [6] > 100 µM | [7] > 100 µM | [8] > 100 µM | [10] > 100 µM | [18] > 100 µM | [19] > 100 µM | [16] > 100 µM | [20] > 100 µM | [11] > 100 µM | [12] > 100 µM | [13] > 100 µM | [15] > 100 µM
